Common to all, as to assay type: functional
For assay [1], the system named is Staphylococcus aureus. In words: Antibacterial activity against Staphylococcus aureus ATCC 29213 by microtiter-tube dilution method.
Assay [2] concerns Enterococcus faecalis. Nature of the assay: Antibacterial activity against Enterococcus faecalis ATCC 29212 by microtiter-tube dilution method.
In assay [3] the test system is Escherichia coli. Nature of the assay: Antibacterial activity against Escherichia coli ATCC 25922 by microtiter-tube dilution method.
The test system of assay [4] is Pseudomonas aeruginosa. In words: Antibacterial activity against Pseudomonas aeruginosa ATCC 27853 by microtiter-tube dilution method.
A short description of assay [5]: Uterocontractile activity in rat uterus assessed as contraction at 6.5 uM relative to acetylcholine.
The nature of assay [6]: Uterocontractile activity in rat uterus assessed as contraction at 20 uM relative to acetylcholine.
Assay [7] has as its system Candida albicans. Nature of the assay: Antifungal activity against Candida albicans by microtiter-tube dilution method.
Assay [8] deals with Pichia kudriavzevii. Nature of the assay: Antifungal activity against Candida krusei by microtiter-tube dilution method.
The test system of assay [9] is Candida parapsilosis. Nature of the assay: Antifungal activity against Candida parapsilosis by microtiter-tube dilution method. Conditions: Lodderomyces parapsilosis.
The test system of assay [10] is Kluyveromyces marxianus. In words: Antifungal activity against Candida pseudotropicalis by microtiter-tube dilution method.
In assay [11] the test system is Candida albicans. Nature of the assay: Antifungal activity against Candida stellatoidea by microtiter-tube dilution method.
Assay [12] relates to Candida tropicalis. In words: Antifungal activity against Candida tropicalis by microtiter-tube dilution method.
The test system of assay [13] is Cryptococcus neoformans. In words: Antifungal activity against Cryptococcus neoformans by microtiter-tube dilution method.
A short description of assay [14]: Uterocontractile activity in rat uterus assessed as contraction at 7.4 uM relative to acetylcholine.
The nature of assay [15]: Uterocontractile activity in rat uterus assessed as contraction at 6.4 uM relative to acetylcholine.
Assay [16] in a line: Uterocontractile activity in rat uterus assessed as contraction at 19 uM relative to acetylcholine.
Assay [17] can be described thus: Uterocontractile activity in rat uterus assessed as contraction at 7.5 uM relative to acetylcholine.
A short description of assay [18]: Uterocontractile activity in rat uterus assessed as contraction at 8.6 uM relative to acetylcholine.

The values below come from ChEMBL document CHEMBL1145722, “Triterpene saponins from Cyclamen mirabile and their biological activities” (1997).

Values after ≈ are worked out from the molar mass of the structure shown. Some results are limits rather than exact numbers.

By MIC is commonly meant the least concentration at which growth counts as inhibited. Low values mean greater potency, high ones weaker potency. For the molecule `CC1(C)[C@@H](O[C@@H]2OC[C@H](O[C@@H]3O[C@H](CO[C@@H]4O[C@H](CO)[C@@H](O)[C@H](O)[C@H]4O)[C@@H](O)[C@H](O)[C@H]3O[C@@H]3OC[C@H](O)[C@H](O)[C@H]3O)[C@H](O)[C@H]2O[C@@H]2O[C@H](CO)[C@@H](O)[C@H](O)[C@H]2O)CC[C@]2(C)[C@H]3CC=C4[C@@H]5C[C@]6(C)CC[C@]5(COC6=O)[C@H](O)C[C@@]4(C)[C@]3(C)CC[C@@H]12` [MIRABILIN LACTONE], the MIC in assay [1], in assay [2], in [3] and in [4] was > 400 µg/mL each time. In addition, the results for the Activity in assay [5] and in assay [6] were 0.6% and 5.7%, respectively.
As for `CC1(C)[C@@H](O[C@@H]2OC[C@H](O[C@@H]3O[C@H](CO)[C@@H](O)[C@H](O[C@@H]4O[C@H](CO)[C@@H](O)[C@H](O)[C@H]4O)[C@H]3O[C@@H]3OC[C@@H](O)[C@H](O)[C@H]3O)[C@H](O)[C@H]2O[C@@H]2O[C@H](CO)[C@@H](O)[C@H](O)[C@H]2O)CC[C@]2(C)[C@H]3CC[C@]45OC[C@@]6(CC[C@](C)(C=O)C[C@H]64)[C@H](O)C[C@@]5(C)[C@]3(C)CC[C@@H]12` [CYCLAMIN], the MIC in [1], in assay [2], in [3] and in [4] was > 400 µg/mL in each case. The Activity in assay [5] came to 48.4%.
In the case of `C[C@]1(C=O)CC[C@]23CO[C@@]4(CC[C@@H]5[C@@]6(C)CC[C@H](O[C@@H]7OC[C@H](O[C@@H]8O[C@H](CO)[C@@H](O)[C@H](O)[C@H]8O[C@@H]8OC[C@H](O)[C@H](O)[C@H]8O)[C@H](O)[C@H]7O[C@@H]7O[C@H](CO)[C@@H](O)[C@H](O)[C@H]7O)[C@@](C)(CO)[C@@H]6CC[C@@]5(C)[C@]4(C)C[C@H]2O)[C@@H]3C1` [CYCLACOUMIN], the MIC in assay [1] is > 400 µg/mL; in [2] it was > 400 µg/mL; in [3] it was > 400 µg/mL; in [4], > 400 µg/mL; in assay [7], 160 µg/mL (≈ 149 µM); in [8] it was > 320 µg/mL. The minimum inhibitory concentration (MIC) in assay [9] is 80 µg/mL (≈ 74.3 µM); in assay [10], 160 µg/mL (≈ 149 µM); in assay [11], 160 µg/mL (≈ 149 µM); in [12], 160 µg/mL (≈ 149 µM); in assay [13], 80 µg/mL (≈ 74.3 µM). Also, the Activity in [14] turned out to be 58.2%.
As to `CC1(C)[C@@H](O[C@@H]2OC[C@H](O[C@@H]3O[C@H](CO[C@@H]4O[C@H](CO)[C@@H](O)[C@H](O)[C@H]4O)[C@@H](O)[C@H](O)[C@H]3O[C@@H]3OC[C@H](O)[C@H](O)[C@H]3O)[C@H](O)[C@H]2O[C@@H]2O[C@H](CO)[C@@H](O)[C@H](O)[C@H]2O)CC[C@]2(C)[C@H]3CC=C4[C@@H]5C[C@@](C)(C(=O)O)CC[C@]5(CO)[C@H](O)C[C@@]4(C)[C@]3(C)CC[C@@H]12` [MIRABILIN], the MIC in [1], in assay [2], in assay [3] and in assay [4] was > 400 µg/mL each time. For the same molecule, the Activity in assay [15] came out at 0.7%; in assay [16], 1.1%.
Take `CC1(C)[C@@H](O[C@@H]2OC[C@H](O[C@@H]3O[C@H](CO[C@@H]4O[C@H](CO)[C@@H](O)[C@H](O)[C@H]4O)[C@@H](O)[C@H](O)[C@H]3O[C@@H]3OC[C@H](O)[C@H](O)[C@H]3O)[C@H](O)[C@H]2O[C@@H]2O[C@H](CO)[C@@H](O)[C@H](O)[C@H]2O)CC[C@]2(C)[C@H]3CC[C@]45OC[C@@]6(CC[C@](C)(C=O)C[C@H]64)[C@H](O)C[C@@]5(C)[C@]3(C)CC[C@@H]12` [ISOCYCLAMIN]: the MIC in assay [1], in assay [2], in [3] and in assay [4] was > 400 µg/mL each time. The Activity is 0.1% in assay [5] and 28.3% in [6].
As for `CC1(C)[C@@H](O[C@@H]2OC[C@H](O[C@@H]3O[C@H](CO)[C@@H](O)[C@H](O)[C@H]3O[C@@H]3OC[C@H](O)[C@H](O)[C@H]3O)[C@H](O)[C@H]2O[C@@H]2O[C@H](CO)[C@@H](O)[C@H](O)[C@H]2O)CC[C@]2(C)[C@H]3CC[C@]45OC[C@@]6(CC[C@](C)(C=O)C[C@H]64)[C@H](O)C[C@@]5(C)[C@]3(C)CC[C@@H]12` [DEGLUCOCYCLAMIN], the MIC in assay [1] is > 400 µg/mL; in assay [2], > 400 µg/mL; in [3], > 400 µg/mL; in assay [4] it was > 400 µg/mL; in assay [7] it was 160 µg/mL (≈ 151 µM); in assay [8], > 320 µg/mL. The MIC in [9] is 80 µg/mL (≈ 75.4 µM); in assay [10], 160 µg/mL (≈ 151 µM); in assay [11] it was 160 µg/mL (≈ 151 µM); in [12], 160 µg/mL (≈ 151 µM); in [13] it was 80 µg/mL (≈ 75.4 µM). Moreover, the Activity in assay [17] came to 36.7%.
`CC1(C)[C@@H](O[C@@H]2OC[C@H](O[C@@H]3O[C@H](CO)[C@@H](O)[C@H](O)[C@H]3O)[C@H](O)[C@H]2O[C@@H]2O[C@H](CO)[C@@H](O)[C@H](O)[C@H]2O)CC[C@]2(C)[C@H]3CC[C@]45OC[C@@]6(CC[C@](C)(C=O)C[C@H]64)[C@H](O)C[C@@]5(C)[C@]3(C)CC[C@@H]12` [CYCLAMINORIN]: the MIC in assay [1] was > 400 µg/mL; in [2], > 400 µg/mL; in [3], > 400 µg/mL; in assay [4], > 400 µg/mL; in assay [7] it was 160 µg/mL (≈ 172 µM); in assay [8], > 320 µg/mL. In addition, the MIC in assay [9] came out at 80 µg/mL (≈ 86.1 µM); in assay [10] it was 160 µg/mL (≈ 172 µM); in assay [11], 160 µg/mL (≈ 172 µM); in [12] it was 160 µg/mL (≈ 172 µM); in assay [13] it was 80 µg/mL (≈ 86.1 µM). For the same molecule, the Activity in assay [18] worked out at 46.2%.
